How the values were obtained:
[1] = biological target: T1, gastrin (CCK2) receptors (Rattus norvegicus, UniProt P30553); assay: immature rat stomach assay, gastrin (CCK2) antagonist activity; conditions: isolated immature rat stomach, antagonism of pentagastrin-stimulated acid secretion, 60 min incubation; for Kb: read-out: Rat stomach pKB (converted)
T1 construct: The stomach was excised and flushed with ca. 1 ml of unbuffered physiological saline solution; from tissue; host or cells: isolated whole stomach of immature rats (33-50 g, ca. 21 days old)
T1 sequence (P30553 1-452): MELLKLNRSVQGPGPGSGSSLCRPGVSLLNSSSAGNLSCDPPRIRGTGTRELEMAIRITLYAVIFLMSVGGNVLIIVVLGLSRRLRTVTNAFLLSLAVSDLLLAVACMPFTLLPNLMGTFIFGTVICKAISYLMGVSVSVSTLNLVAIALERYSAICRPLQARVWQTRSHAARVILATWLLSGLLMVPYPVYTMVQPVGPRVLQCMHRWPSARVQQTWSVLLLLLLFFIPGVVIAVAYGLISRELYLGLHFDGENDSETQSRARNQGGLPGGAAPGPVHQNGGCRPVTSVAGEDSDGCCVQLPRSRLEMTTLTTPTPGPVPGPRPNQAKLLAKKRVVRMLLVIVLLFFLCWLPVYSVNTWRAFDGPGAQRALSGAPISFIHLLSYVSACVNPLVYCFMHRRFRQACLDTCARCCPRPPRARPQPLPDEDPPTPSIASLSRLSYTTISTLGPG
Method: The compounds of the examples were tested for gastrin (CCK2) antagonist activity in an immature rat stomach assay. The procedure was as follows:
The oesophagus of immature rats (33-50 g, ca. 21 days old) was ligated at the level of the cardiac sphincter and the duodenal sphincter was cannulated. The stomach was excised and flushed with ca. 1 ml of unbuffered physiological saline solution. The fundus was punctured and cannulated. A further 4-5 ml of unbuffered solution was flushed through the stomach to ensure the preparation was not leaking. The stomach was lowered into a jacketed organ bath containing 40 ml of buffered solution containing 3×10^−8 M 5-methylfurmethide, maintained at 37° and gassed vigorously with 95% O2/5% CO2. The stomach was continuously perfused at a rate of 1 ml min^−1 with unbuffered solution gassed with 100% O2 with perfusate passing over an internally referenced pH-electrode fixed 12 cm above the stomach.
After 120 min of stabilisation the drugs were added directly to the serosal solution in the organ bath and after a further 60 min cumulative pentagastrin dose-response curves were started. Changes in acid secretion were monitored and the curves analysed according to Black et al., Br. J. Pharmacol., 1985, 86, 581.

[2] = biological target: T2, CCK1 receptors (Cavia porcellus, UniProt Q63931); assay: CCK1 binding assay, guinea-pig pancreas membranes, [125I]-CCK8(S); conditions: [125I]-CCK8(S) 200 pM, 150 minutes at 21±3° C; for Ki: read-out: Guinea-Pig Pancreas CCK1 pKi (converted)
T2 construct: The pancreatata were homogenised in 40 ml ice-cold HEPES buffer using a polytron; from tissue; host or cells: pancreas membranes of male Dunkin Hartley guinea-pigs
T2 sequence (Q63931 1-430): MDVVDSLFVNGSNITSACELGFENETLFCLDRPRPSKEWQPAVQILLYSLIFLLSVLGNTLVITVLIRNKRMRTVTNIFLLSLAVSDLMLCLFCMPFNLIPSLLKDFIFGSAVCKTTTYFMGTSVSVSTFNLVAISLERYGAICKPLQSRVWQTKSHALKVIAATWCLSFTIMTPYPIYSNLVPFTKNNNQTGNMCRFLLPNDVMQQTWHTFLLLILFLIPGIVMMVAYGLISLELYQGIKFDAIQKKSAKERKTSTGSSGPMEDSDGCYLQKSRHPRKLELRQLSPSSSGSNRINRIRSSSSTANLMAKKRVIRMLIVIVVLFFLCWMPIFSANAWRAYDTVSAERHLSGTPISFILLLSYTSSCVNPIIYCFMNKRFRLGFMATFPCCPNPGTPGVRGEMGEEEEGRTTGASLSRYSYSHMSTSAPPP
Method: The compounds of certain examples were also tested in a CCK1 binding assay as follows:
The pancreatata were removed from male guinea-pigs (200-300 g; Dunkin Hartley) and placed in ice-cold HEPES buffer (pH 7.2@21±3° C.). The pancreatata were homogenised in 40 ml ice-cold HEPES buffer using a polytron (Brinkmann, PT10, setting 10) 4×1 second. The homogenate was centrifuged at 39,800 g for 15 min at 4° C. The supernatant was discarded and the pellet re-suspended using a Teflon-in-glass homogeniser in 20 volumes of fresh buffer and re-centrifuged as above. The final pellet was re-suspended using a Teflon-in-glass homogeniser to a tissue concentration of 1 mg.ml^−1 (original wet weight), and filtered through a 500 μm pore-size Nytex mesh.
The membranes (400 μl; containing 0.375 μM PD134,308) were incubated for 150 minutes at 21±3° C. in a final volume of 0.5 ml with HEPES buffer containing [^125I]-CCK8 (S) (50 μl; 200 pM) and competing compound. Total and non-specific binding of [^125I]-CCK8 (S) were defined using 50 μl of buffer and 50μ of 100 nM L-364,718 respectively. The assay was terminated by rapid filtration through pre-soaked Whatman GF/B filters using a Brandell Cell Harvetser. The filters were washed (3×3 ml) with ice-cold 50 mM Tris HCl (pH 7.4@4° C.) and bound radioactivity was determined by counting (1 min) in a gamma counter.

## 2-{5-[5-(Adamantan-1-yloxymethyl)-2-cyclohexyl-1H-imidazol-2-yl]-[1,3,4]oxadiazol-2-yl}-isonicotinic acid [Example 14]
[1]
  Rat stomach pKB: 5.98
[2]
  Guinea-Pig Pancreas CCK1 pKi: 5.01

## 3-{2-[5-(2-Adamantan-1-yl-ethyl)-2-o-tolyl-1H-imidazol-4-yl]-[1,2,4]oxadiazol-3-yl}-benzoic acid [Example 5]
[1]
  Rat stomach pKB: 5.76
[2]
  Guinea-Pig Pancreas CCK1 pKi: 6.40

## 3-{2-[5-(Adamantan-1-yloxymethyl)-2-cyclohexyl-1H-imidazol-4-yl]-[1,2,4]oxadiazol-3-yl}-benzoic acid [Example 3]
[1]
  Rat stomach pKB: 8.66
[2]
  Guinea-Pig Pancreas CCK1 pKi: 6.37

## 3-{5-[5-(Adamantan-1-yloxymethyl)-2-cyclohexyl-1H-imidazol-4-yl]-[1,3,4]triazol-3-yl}-benzoic acid [Example 10]
[1]
  Rat stomach pKB: 8.28
[2]
  Guinea-Pig Pancreas CCK1 pKi: 6.41

## 3-{5-[5-(Adamantan-1-yloxymethyl)-2-cyclohexyl-3-hydroxy-1H-imidazol-4-yl]-[1,3,4]oxadiazol-2-yl}-benzoic acid [Example 17]
[1]
  Rat stomach pKB: 6.90
[2]
  Guinea-Pig Pancreas CCK1 pKi: 5.23

## O=C(O)c1cccc(-c2coc(-c3nc(C4CCCCC4)[nH]c3COC34CC5CC(CC(C5)C3)C4)n2)c1 [Example 1, 3-{2-[5-(Adamantan-1-yloxymethyl)-2-cyclohexyl-1H-imidazol-4-yl}-oxazol-4-yl}-benzoic acid]
[1]
  Kb: 7.94 nM
[2]
  Ki: 741 nM

## Cc1ccccc1-c1nc(-c2nc(-c3cccc(C(=O)O)c3)co2)c(CCC23CC4CC(CC(C4)C2)C3)[nH]1 [Example 2, 3-{2-[5-(2-Adamantan-1-yl-ethyl)-2-o-tolyl-1H-imidazol-4-yl]oxazol-4-yl}-benzoic acid]
[1]
  Kb: 18.2 nM
[2]
  Ki: 1170 nM

## O=C(O)c1cccc(-c2noc(-c3nc(C4CCCCC4)[nH]c3CCC34CC5CC(CC(C5)C3)C4)n2)c1 [Example 4, 3-{2-[5-(2-Adamantan-1-yl-ethyl)-2-cyclohexyl-1H-imidazol-4-yl]-[1,2,4]oxadiazol-3-3-yl}-benzoic acid]
[1]
  Kb: 6.92 nM
[2]
  Ki: 339 nM

## O=C(O)c1cccc(-c2csc(-c3nc(C4CCCCC4)[nH]c3COC34CC5CC(CC(C5)C3)C4)n2)c1 [Example 6, 3-{2-[5-(Adamantan-1-yloxymethyl)-2-cyclohexyl-1H-imidazol-4-yl]-thiazol-4-yl}-benzoic acid]
[1]
  Kb: 2.69 nM
[2]
  Ki: 1150 nM

## O=C(O)c1cccc(-c2c[nH]c(-c3nc(C4CCCCC4)[nH]c3COC34CC5CC(CC(C5)C3)C4)n2)c1 [Example 7, 3-[5′-(Adamantan-1-yloxymethyl)-2′cyclohexyl-1H,1H′-[2,4′]biimidazolyl-4-yl]-benzoic acid]
[1]
  Kb: 97.7 nM
[2]
  Ki: 269 nM

## O=C(O)c1cccc(-c2nnc(-c3nc(C4CCCCC4)[nH]c3COC34CC5CC(CC(C5)C3)C4)s2)c1 [Example 8, 3-{5-[5-(Adamantan-1-yloxymethyl)-2-cyclohexyl-1H-imidazol-4-yl]-[1,3,4]thiadiazol-2-yl}-benzoic acid]
[1]
  Kb: 3.72 nM
[2]
  Ki: 135 nM

## O=C(O)c1cccc(-c2nnc(-c3nc(C4CCCCC4)[nH]c3COC34CC5CC(CC(C5)C3)C4)o2)c1 [Example 9, 3-{5-[5-(Adamantan-1-yloxymethyl)-2-cyclohexyl-1H-imidazol-4-yl]-[1,3,4]oxadiazol-2-yl}-benzoic acid]
[1]
  Kb: 2.45 nM
[2]
  Ki: 550 nM

## O=C(O)c1cccc(C2CN=C(c3nc(C4CCCCC4)[nH]c3COC34CC5CC(CC(C5)C3)C4)O2)c1 (centres unmarked) [Example 11, 3-{2-[5-(Adamantan-1-yloxymethyl)-2-cyclohexyl-1H-imidazol-4-yl]-4,5-dihydro-oxazol-5-yl}-benzoic acid]
[1]
  Kb: 191 nM

## O=C(O)c1cccc(-c2nnc(-c3nc(C4CCCCC4)[nH]c3COC34CC5CC(CC(C5)C3)C4)o2)n1 [Example 12, 6-{5-[5-(Adamantan-1-yloxymethyl)-2-cyclohexyl-1H-imidazol-4-yl]-[1,3,4]oxadiazol-2-yl}-pyridine-2-carboxylic acid]
[2]
  Ki: 2140 nM

## O=C(O)c1cncc(-c2nnc(-c3nc(C4CCCCC4)[nH]c3COC34CC5CC(CC(C5)C3)C4)o2)c1 [Example 13, 5-{5-[5-(Adamantan-1-yloxymethyl)-2-cyclohexyl-1H-imidazol-4-yl]-[1,3,4]oxadiazo-2-yl}-nicotinic acid]
[1]
  Kb: 22.9 nM
[2]
  Ki: 3240 nM

## O=C(O)c1cccc(-c2nnc(-c3nc(C45CCC(CC4)CC5)[nH]c3COC34CC5CC(CC(C5)C3)C4)o2)c1 [Example 16, 3-{5-[5-(Adamantan-1-yloxymethyl)-2-bicyclo[2.2.2]oct-1-yl-1H-imidazol-4-yl]-[1,3,4]oxadiazol-2-yl}-benzoic acid]
[1]
  Kb: 1.91 nM
[2]
  Ki: 468 nM

## O=C(O)c1cccc(-c2nc(-c3nc(C4CCCCC4)[nH]c3COC34CC5CC(CC(C5)C3)C4)no2)c1 [Example 18, 3-{3-[5-(Adamantan-1-yloxymethyl)-2-cyclohexyl-1H-imidazol-4-yl]-[1,2,4]oxadiazol-5-yl}-benzoic acid]
[1]
  Kb: 2.4 nM
[2]
  Ki: 501 nM

Reference: patent US6878734B2, “Gastrin and cholecystokinin receptor ligands(II)” (James Black Foundation Limited, priority 2000, dated 2005)
